Measurements as given in article PMC7619385 (ACS infectious diseases, 2025).
pEC50, pIC50, pKd: −log10 of the molar value. Read-outs that look alike come from different tables or passages of the source.

Assays:
NLuc::LmxCLK1 [1] = biological target: T1, NLuc::LmxCLK1 (Leishmania mexicana, UniProt E9AMP2); test: In vitro BRET with purified NLuc::LmxCLK1; type: binding
Protocol: (§1) in vitro BRET used purified NLuc-LmxCLK1 in Kinase Buffer (50 mM HEPES, 1 mM EGTA, 10 mM MgCl^2, 2 mM DTT and 0.01% Tween-20) aliquoted into 96-well plates (Greiner #655904). In cell BRET assays used engineered L. mexicana (promastigotes or intramacrophage amastigotes) expressing NLuc-LmxCLK1 in cell media aliquoted into 96-well plates (Greiner, #655083). For tracer titration experiments, BRET probes were serially diluted from 100% DMSO stocks – first in 100% DMSO to 100x final assay concentration, and then in Tracer Dilution Buffer (TDB - 12.5 mM HEPES, pH 7.5; 31.25% PEG 400) to 20x the final assay concentration. Serially diluted probes (5 µL) were added to 85 µL of cells in culture media or 85 µL of purified protein. Final well volumes were adjusted to 100 µL with sterile Opti-MEM™ I Reduced Serum Medium (Thermo-Scientific) – for wells containing cells; or Kinase Buffer - for wells containing purified protein. For tracer displacement assays, samples were prepared as above, but final volume was brought to 100 µL by addition of vehicle or serially-diluted test compounds. Final DMSO concentration in these assays was 1%. Plates were incubated for 30 min at 25 °C (purified protein and promastigotes) or 34 °C (intramacrophage amastigotes), and 50 µL of Promega cocktail containing furimazine and NLuc extracellular inhibitor (catalog #N2161) were added to each well. Light emissions at 460+10 nm (BRET donor) and at 610+20 nm (BRET acceptor) were sequentially recorded (integration time = 0.5 s, gain = 3600) using a luminometer (BMG LABTECH Clariostar or Biotek Synergy HT). BRET values are reported in milli-BRET (mBRET) units (mBU), obtained by dividing the acceptor luminescence by the donor luminescence and multiplying the result by a factor of 1,000. BRET values were converted to blank-corrected probe occupancies (%) according to equation [1]: (1) Probeoccupancy(%)=X−Z/Y−Z×100 where X = mBRET value in the presence of the test compound and the probe, Y = mBRET value in the presence of probe only, and Z = mBRET value in the absence of probe and test compound.
To determine apparent dissociation constants from saturation binding curves, mBRET values were plotted as a function of probe concentration, and probe affinity values (KD) were determined using the hyperbolic dose-response equation for binding to a single site available in GraphPad Prism (v. 9.1.0).

NLuc::LmxCLK1 [2] = biological target: T1, NLuc::LmxCLK1; test: cell-based; type: cell-based; conditions: for Target occupancy Run 1 / Target occupancy Run 2 / Target occupancy Average: 10 µM compound, tracer SV366, promastigotes; for Target occupancy Average: mean of two experiments
Summary of the method: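 NanoBRET tracer displacement in live cells expressing NLuc-tagged CLK1, test compounds at 10 µM fixed, 1% DMSO final. Acceptor/donor emission (610/460 nm) ratio gives mBRET, converted to blank-corrected probe occupancy (%); probe KD from single-site saturation binding fits.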

NLuc::LmxCLK1 [3] = biological target: T1, NLuc::LmxCLK1; test: In-cell BRET target engagement in intracellular amastigotes expressing NLuc::LmxCLK1; type: cell-based
Protocol: (§2) L. mexicana (strain MNYC/BZ/62/M379) promastigotes were cultivated in medium 199 (M199) (Earle’s Salts - Gibco) supplemented with 10% (v/v) heat-inactivated fetal calf serum (HIFCS – Cultilab) and 1% Penicillin/Streptomycin solution (Sigma-Aldrich) at 26 °C. Phenotypic drug response assays in null mutant and point-mutation mutant lines were performed in HOMEM supplemented with 10% (v/v) heat-inactivated fetal calf serum (HIFCS – Gibco). THP-1 monocytes were differentiated in adherent macrophages with 50 ng of PMA for 72 h at 37 °C and 5% CO2 before infection with stationary phase promastigotes (ratio 10 promastigotes:1 macrophage) for 6 h, followed by washing to remove non-internalized Leishmania. Infected macrophages were incubated at 34 °C and 5% CO2 for 48 h in RPMI (Gibco) supplemented with 10% HIFCS and 1% Penicillin/Streptomycin solution.
as §1

LmxCLK1 [4] = biological target: T2, LmxCLK1 (Leishmania mexicana, UniProt E9AMP2); test: HTRF (TR-FRET) enzymatic inhibition assay; type: biochemical; conditions: IC50 enzymatic inhibition of LmxCLK1, purified LmxCLK1, 30-min pre-incubation, 66 µM ATP
T2 sequence (E9AMP2 1-422): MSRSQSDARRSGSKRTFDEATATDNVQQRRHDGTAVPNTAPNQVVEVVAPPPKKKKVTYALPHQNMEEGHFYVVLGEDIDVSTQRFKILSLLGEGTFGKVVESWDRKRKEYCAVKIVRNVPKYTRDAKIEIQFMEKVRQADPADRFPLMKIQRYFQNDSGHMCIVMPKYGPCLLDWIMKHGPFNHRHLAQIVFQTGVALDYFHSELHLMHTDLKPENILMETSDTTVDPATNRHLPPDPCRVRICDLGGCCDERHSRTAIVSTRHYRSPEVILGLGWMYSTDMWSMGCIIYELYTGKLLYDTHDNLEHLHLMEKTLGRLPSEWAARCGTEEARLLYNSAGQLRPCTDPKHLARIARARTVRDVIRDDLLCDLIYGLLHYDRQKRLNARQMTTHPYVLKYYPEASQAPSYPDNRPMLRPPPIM
Protocol: The enzymatic activity of full-length LmxCLK1 was monitored using a homogenous time-resolved fluorescence (HTRF)-based assay (HTRF KinEASE-STK S3 kit, Cisbio - catalog #62ST3PEC). For IC50 value determination, the data from two independent experiments performed in duplicate were fitted to the sigmoidal dose-response (variable slope) equation available in GraphPad Prism (v. 9.1.0). Detailed information for IC50 determination can be found in the Supplementary Information. […]
min at 4 °C. The supernatants were loaded onto an immobilized metal affinity chromatography (IMAC) […]
column (5 mL HisTrap FF Crude, GE Healthcare) and washed in Binding Buffer containing 30 mM imidazole.
Proteins were eluted in Binding Buffer with 300 mM imidazole. To remove the N-terminal 6xHis-tag […]
introduced during cloning (see above), proteins were incubated with TEV protease during dialysis […]
overnight at 4 °C into Gel Filtration Buffer (20 mM HEPES, 500 mM NaCl, 5% glycerol, 0.5 mM TCEP).
Recombinant proteins were further purified using reverse affinity chromatography on Ni-Sepharose […]
followed by gel filtration (Superdex 200 16/60, GE Healthcare), and concentrated using 10 kDa molecular […]
weight cut-off centrifugal concentrators (Millipore). LmxCLK1 (CQMED clone ID LmxCLK1-cb001) and […]
NLuc-LmxCLK1 (CQMED clone ID LmxCLK1-cb021) proteins were stored at -80 °C for in vitro biochemical […]
assays at 0.5 mg/mL and 0.7 mg/mL, respectively, measured by UV absorbance with a NanoDrop […]
spectrophotometer (Thermo Scientific), using the calculated molecular weight and estimated extinction […]
Purified proteins were further analyzed by LC-ESI-MS in a XEVO G2 Sx Q-ToF (Waters). Expected intact […]
masses for LmxCLK1 (CQMED clone ID LmxCLK1-cb001) and NLuc-LmxCLK1 (CQMED clone ID LmxCLK1- […]
cb021) were: 48,791.14 Da and 68,411.71 Da, respectively.
We monitored the activity of recombinantly produced full-length LmxCLK1 (CQMED clone ID LmxCLK1- […]
cb001) using a commercially-available homogenous time-resolved fluorescence (HTRF)-based assay (HTRF […]
KinEASE-STK S3 kit, Cisbio - catalog #62ST3PEC). Assay development included establishing reaction […]
parameters (optimal enzyme concentration, ATP concentration and reaction time).
(15-point, 3-fold serial dilution and a highest final assay concentration of 10 µM) prior to transfer (100 nL) […]
to a black, 384-well, round bottom, low-volume plate (Corning catalog #4514) containing a mixture of […]
LmxCLK1 and peptide substrate in kinase buffer using an automated liquid transferring system (CYBIO […]
FeliX®, Analytik Jena, Jena, Germany). […]
started by the addition of ATP and allowed to proceed for 75 min at 30 °C. Final concentrations for reaction […]
components were: 6 nM LmxCLK1, 66 µM ATP (10× KM,ATP), 1 µM peptide (STK Substrate 3-biotin, Cisbio).
All components were prepared in 1× Enzymatic Buffer (Cisbio) supplemented with 5 mM MgCl2, 1 mM […]
DTT, 0.01% Tween-20. The reaction was stopped by the addition of Detection Buffer containing EDTA, […]
Fluorescence signal was measured using a CLARIOstar microplate reader (BMG LABTECH) with excitation […]
at 330 nm, emission at 665 nm (acceptor) and 620 nm (donor), integration delay 60 μs and integration […]
time 400 μs. All reactions were done in duplicate and two independent experiments were performed.
Enzyme activity was expressed as the background-corrected HTRF ratio of the acceptor and donor […]
emission signals according to equation [1]:
(also on this page, place not known: imi dazole. Ni -Sepharose background -corrected (665/620)=3Acceptor!!"#$ −backgroundD.10,000 Downloaded from http://pubs.acs.org/aidcbc/article-supplement/3662943/pdf/id5c00610_si_001/ by guest on 07 August 2026) […]
where background is the background fluorescence obtained in the absence of enzyme (blank).
To determine IC50 values, the background-corrected HTRF ratio was plotted as a function of test

[5] = test system: L. mexicana promastigotes; test: Promastigote viability (Alamar Blue/resazurin); type: cell-based; conditions: Leishmania mexicana; 48 h compound exposure; read-out: EC50 promastigote viability
Protocol: Next, we evaluated GZD824 ability to reduce the viability of L. mexicana promastigotes by monitoring the reduction of resazurin (Alamar Blue).[31]
as §2
For evaluation of drug effect on promastigote and uninfected macrophage viability, cells were cultivated in the presence of test compounds for 24 h and incubated with 10% AlamarBlue™ Cell Viability Reagent (ThermoFisher) for 24 h before measuring fluorescence at λex 540 nm/λem 590 nm. Untreated cells (1% DMSO) were set as 100 % viable cells. Intracellular amastigotes were treated with compounds for 48 h. Slides with paraformaldehyde-fixed and DAPI-stained cells were imaged on a Zeiss AxioImager microscope – at least 200 macrophages per drug concentration and DMSO control. Experiments were performed in duplicate. The total number of amastigotes was normalized by the number of macrophages counted. For EC50 determination, the data was fitted to the sigmoidal dose-response (variable slope) equation in GraphPad Prism (v.9.1.0).

LmxCLK1 [6] = biological target: T2, LmxCLK1; test: biochemical; type: binding
[7] = DSF, 10 µM compound, 2 µM LmxCLK1, Run 1
[8] = DSF, 10 µM compound, 2 µM LmxCLK1, Run 2
[9] = DSF, 10 µM compound, 2 µM LmxCLK1, mean of two runs

Cc1ccc(C(=O)Nc2ccc(CN3CCN(CCCNC(=O)CCC4=[N+]5C(=Cc6ccc(-c7ccc[nH]7)n6[B-]5(F)F)C=C4)CC3)c(C(F)(F)F)c2)cc1C#Cc1cnc2[nH]ncc2c1 [SV363]
pEC50 (NLuc::LmxCLK1 [1]): < 6.00

Cc1ccc(C(=O)Nc2ccc(CN3CCN(CCCNC(=O)c4ccc(C(=O)O)c(-c5c6ccc(=O)cc-6oc6cc(O)ccc56)c4)CC3)c(C(F)(F)F)c2)cc1C#Cc1cnc2[nH]ncc2c1 [SV366]
EC80 (NLuc::LmxCLK1 [1]; 0.5 h, read-out: EC80 tracer titration, purified NLuc-LmxCLK1): 59.4 nM | pEC50 (NLuc::LmxCLK1 [1]; read-out: EC50 tracer titration, purified NLuc::LmxCLK1, BRET probe binding): 8.08 | pKd (NLuc::LmxCLK1 [1]; saturation binding to purified NLuc::LmxCLK1): 8.23 | EC80 (NLuc::LmxCLK1 [2]; 0.5 h, read-out: EC80 tracer titration in promastigotes): 1050 nM | pEC50 (NLuc::LmxCLK1 [2]; read-out: EC50 tracer titration in promastigotes, live promastigotes): 6.42 | EC80 (NLuc::LmxCLK1 [3]; 0.5 h, read-out: EC80 tracer titration in intracellular amastigotes): 200 nM | pEC50 (NLuc::LmxCLK1 [3]; read-out: EC50 tracer titration in intracellular amastigotes, infected macrophages): 7.14 | Lower EC50 in intracellular amastigotes compared to promastigotes (NLuc::LmxCLK1 [3]; tracer titration): approximately 5 fold

CN[C@@H]1C[C@H]2O[C@@](C)([C@@H]1OC)n1c3ccccc3c3c4c(c5c6ccccc6n2c5c31)C(=O)NC4 [Staurosporine]
pIC50 (LmxCLK1 [4]): 6.34 | pEC50 [5]: 6.05

CC(C)N(CCC(=O)c1ccc2ccccc2c1)Cc1ccccc1.Cl [ZM 39923 HCl]
ΔTm Run 1 (LmxCLK1 [6]; [7]): 0.0 °C | ΔTm Run 2 (LmxCLK1 [6]; [8]): -0.3 °C | ΔTm Average (LmxCLK1 [6]; [9]): -0.2 °C | Target occupancy Run 1 (NLuc::LmxCLK1 [2]): 0.2% | Target occupancy Run 2 (NLuc::LmxCLK1 [2]): -18.8% | Target occupancy Average (NLuc::LmxCLK1 [2]): -9.3%

Cc1ccc(NC(=O)c2cccc(N(C)C)c2)cc1NC(=O)c1ccc(O)cc1 [ZM 336372]
ΔTm Run 1 (LmxCLK1 [6]; [7]): -0.1 °C | ΔTm Run 2 (LmxCLK1 [6]; [8]): -0.5 °C | ΔTm Average (LmxCLK1 [6]; [9]): -0.3 °C | Target occupancy Run 1 (NLuc::LmxCLK1 [2]): -4.5% | Target occupancy Run 2 (NLuc::LmxCLK1 [2]): -6.5% | Target occupancy Average (NLuc::LmxCLK1 [2]): -5.5%

AZD4547
ΔTm Run 1 (LmxCLK1 [6]; [7]): -0.1 °C | ΔTm Run 2 (LmxCLK1 [6]; [8]): -0.3 °C | ΔTm Average (LmxCLK1 [6]; [9]): -0.2 °C | Target occupancy Run 1 (NLuc::LmxCLK1 [2]): -24.6% | Target occupancy Run 2 (NLuc::LmxCLK1 [2]): 21.5% | Target occupancy Average (NLuc::LmxCLK1 [2]): -1.5%

UNC-AA-1-0013 (AAK1)
ΔTm Average (LmxCLK1 [6]): -0.2 | ΔTm Run 1 (LmxCLK1 [6]): -0.2 | ΔTm Run 2 (LmxCLK1 [6]): -0.3 | Target occupancy Run 1 (NLuc::LmxCLK1 [2]): 3.7% | Target occupancy Run 2 (NLuc::LmxCLK1 [2]): -11.6% | Target occupancy Average (NLuc::LmxCLK1 [2]): -4.0%
